{
  "source": "patent US12714696B2",
  "about": "“Low dose fluralaner compositions for protection against parasitic invertebrate pest” (VIRBAC, priority 2019, dated 2026)",
  "assay": "Pharmacokinetics after repeated oral administration of 35 μg/kg of fluralaner in dogs after feeding",
  "type": "in vivo, beagle dogs",
  "conditions": "oral 35 μg/kg Days 0-3, dogs; for concentration at 480 h / concentration at 576 h / concentration at 672 h / AUC(0-inf) / AUC(0-t) / Cmax / half-life: beagle, dog, plasma, po; for concentration at 480 h / concentration at 576 h / concentration at 672 h: 35 μg/kg; for AUC(0-inf) / AUC(0-t) / Cmax / half-life: 35 ug/kg",
  "procedure": "The first objective of the study was to obtain the pharmacokinetic parameters after repeated oral administration of 35 μg/kg of fluralaner in dogs, 30 to 35 minutes after feeding.\nThe second objective was to investigate the pharmacodynamics between the fluralaner plasmatic dose and the effectiveness against fleas. • IVP: Investigational Veterinary Product, is pure Fluralaner+DMSO (35 μg/kg on Days 0 to 3 (0.35 mL/kg)) • Control product is DMSO (0.35 mL/kg on Days 0 to 3)\nOn Days 0, 1, 2 and 3, all dogs assigned to group 2 received the Investigational Veterinary Product. On Days 0 to 3 all dogs in group 1 received the control product at a volume equal to the dogs in group 2. Dogs assigned to group 1 received the control product and served as Placebo controls. The quantity of Investigational Veterinary Product and control product administered was calculated according to the dog's individual body weight measured on Day −1.\nBlood samples were taken from all dogs prior to Investigational Veterinary Product treatment or control product administration on Day 0 and on Days 1 (+24 hours), 2 (+48 hours), 3 (+72 hours), 4 (+96 hours), 5 (+120 hours), 10 (+240 hours), 15 (+360 hours), 20 (+480 hours), 24 (+576 hours) and Day 28 (+672 hours).\nOn days of administration of pre-Investigational Veterinary Product or Control Product, dogs were fed (the same dog food) approximately half of their normal daily ration 30 minutes to 35 minutes prior to administration. Food consumed by the time of administration was calculated and recorded. The remainder of their normal daily ration was fed immediately after administration.\nThe PK parameters of fluralaner were calculated using a non-compartmental approach.\nThe following rules were applied for the calculation of the PK parameters: • All the plasma concentrations, validated by the bioanalytical laboratory, were used for the PK analysis. • The actual blood sampling times were used throughout. • Concentrations below the Limit of Quantification (LOQ) value were considered as zero from time zero (pre-dose) up to the time at which the first quantifiable concentration above the LOQ value was observed. Concentrations below the LOQ value between two quantifiable concentrations were considered as missing. Trailing concentrations below the LOQ value were not used in calculations.\nCmax the observed maximum concentration in plasma measured after dosing.\ntmax the time at which Cmax was apparent.\nλz the terminal rate constant (λz) was estimated by log-linear regression analysis on data points visually assessed, to be on the terminal log-linear phase. For the slope of the terminal elimination phase to be accepted as reliable, the following criteria were used: • the terminal data points were apparently randomly distributed about a single straight line (on visual inspection), • a minimum of three data points, including the last measured data point and excluding Cmax, were available for the regression.\nt1/2 the terminal plasma half-life (t1/2) was calculated according to the following equation: […]\nAUC0-t the area under the concentration-time curve from time zero (pre-dose) to the time of last quantifiable concentration (t) was calculated using a linear trapezoidal method.\n[AUC0-∞=AUC0-t+(Ct/λz)], where Ct was the observed concentration of drug for the last sample on the PK profile in which the drug was detected, and λz was as defined above.\nThe extrapolated area under the curve, expressed as a percentage of the total area, AUCinf, was also calculated as: Area Extra (%)=(AUC0-∞−AUC0-t)/AUC0-∞*100%.",
  "key": {"[1]": {"conditions": "n=6, read-out: fluralaner concentration levels, Mean"}, "[2]": {"conditions": "n=6, read-out: fluralaner concentration levels, Median"}, "[3]": {"conditions": "n=6, read-out: fluralaner concentration levels, Minimum"}, "[4]": {"conditions": "read-out: fluralaner concentration levels, individual animal"}, "[5]": {"conditions": "n=6, read-out: fluralaner concentration levels, GeoMean"}, "[6]": {"conditions": "n=6, read-out: fluralaner concentration levels, Maximum"}},
  "note": "Several values for one entry are separate records, joined by “and”; a condition that tells them apart may be missing. Identical values can stand only once. Like-named read-outs stand apart in the source and are kept apart here.",
  "data": [
    {"smiles": "Cc1cc(C2=NOC(c3cc(Cl)cc(Cl)c3)(C(F)(F)F)C2)ccc1C(=O)NCC(=O)NCC(F)(F)F", "note": "(stereo not drawn) [fluralaner, Fluralaner]", "values": [
      {"measurement": "concentration at 480 h", "setting": "[1]", "result": 22.4, "unit": "ng/mL"},
      {"measurement": "concentration at 480 h", "setting": "[2]", "result": 23.2, "unit": "ng/mL"},
      {"measurement": "concentration at 480 h", "setting": "[3]", "result": 17.1, "unit": "ng/mL"},
      {"measurement": "concentration at 480 h", "setting": "[4]", "result": 25.3, "unit": "ng/mL"},
      {"measurement": "concentration at 576 h", "setting": "[5]", "result": 17.1, "unit": "ng/mL"},
      {"measurement": "concentration at 576 h", "setting": "[6]", "result": 22.2, "unit": "ng/mL"},
      {"measurement": "concentration at 576 h", "setting": "[1]", "result": 17.4, "unit": "ng/mL"},
      {"measurement": "concentration at 576 h", "setting": "[2]", "result": 16.1, "unit": "ng/mL"},
      {"measurement": "concentration at 576 h", "setting": "[3]", "result": 13.3, "unit": "ng/mL"},
      {"measurement": "concentration at 576 h", "setting": "[4]", "result": 17.3, "unit": "ng/mL"},
      {"measurement": "concentration at 672 h", "setting": "[5]", "result": 12.5, "unit": "ng/mL"},
      {"measurement": "concentration at 672 h", "setting": "[6]", "result": 16, "unit": "ng/mL"},
      {"measurement": "concentration at 672 h", "setting": "[1]", "result": 12.8, "unit": "ng/mL"},
      {"measurement": "concentration at 672 h", "setting": "[2]", "result": 12.8, "unit": "ng/mL"},
      {"measurement": "concentration at 672 h", "setting": "[3]", "result": 9.1, "unit": "ng/mL"},
      {"measurement": "concentration at 672 h", "setting": "[4]", "result": 16, "unit": "ng/mL"},
      {"measurement": "AUC(0-inf)", "setting": "n=6, read-out: AUC 0-inf, GeoMean", "result": 27900, "unit": "ng·h/mL"},
      {"measurement": "AUC(0-inf)", "setting": "n=6, read-out: AUC 0-inf, Mean", "result": 28100, "unit": "ng·h/mL"},
      {"measurement": "AUC(0-inf)", "setting": "n=6, read-out: AUC 0-inf, Median", "result": 28300, "unit": "ng·h/mL"},
      {"measurement": "AUC(0-t)", "setting": "n=6, read-out: AUC 0-t, GeoMean", "result": 23900, "unit": "ng·h/mL"},
      {"measurement": "AUC(0-t)", "setting": "n=6, read-out: AUC 0-t, Mean", "result": 23900, "unit": "ng·h/mL"},
      {"measurement": "AUC(0-t)", "setting": "n=6, read-out: AUC 0-t, Median", "result": 24000, "unit": "ng·h/mL"},
      {"measurement": "Cmax", "setting": "n=6, read-out: Cmax, GeoMean", "result": 84, "unit": "ng/mL"},
      {"measurement": "Cmax", "setting": "n=6, read-out: Cmax, Mean", "result": 84.4, "unit": "ng/mL"},
      {"measurement": "Cmax", "setting": "n=6, read-out: Cmax, Median", "result": 87, "unit": "ng/mL"},
      {"measurement": "half-life", "setting": "n=6, read-out: t½ (terminal half-life), Mean (converted)", "result": 217, "unit": "h"},
      {"measurement": "half-life", "setting": "n=6, read-out: t½, GeoMean (converted)", "result": 214, "unit": "h"},
      {"measurement": "half-life", "setting": "n=6, read-out: t½, Median (converted)", "result": 233, "unit": "h"},
      {"measurement": "AUC(0-inf)", "setting": "read-out: AUC 0-inf, individual animal", "result": 31000, "unit": "ng·h/mL"},
      {"measurement": "AUC(0-t)", "setting": "read-out: AUC 0-t, individual animal", "result": 25000, "unit": "ng·h/mL"},
      {"measurement": "Cmax", "setting": "read-out: Cmax, individual animal", "result": 71.8, "unit": "ng/mL"},
      {"measurement": "Cmax", "setting": "read-out: maximum concentration (Cmax), range", "result": "71.8 to 92.4", "unit": "ng/mL"},
      {"measurement": "half-life", "setting": "read-out: terminal half-life, range", "result": "155 to 261", "unit": "h"},
      {"measurement": "half-life", "setting": "read-out: t½, individual animal (converted)", "result": 261, "unit": "h"},
      {"measurement": "AUC 0-inf, individual animal", "result": "26895 ng·h/mL and 31726 ng·h/mL and 29670 ng·h/mL and 23684 ng·h/mL and 25369 ng·h/mL"},
      {"measurement": "AUC 0-t, individual animal", "result": "23395 ng·h/mL and 26334 ng·h/mL and 24538 ng·h/mL and 21644 ng·h/mL and 22612 ng·h/mL"},
      {"measurement": "AUC extrap, individual animal", "result": "19.5% and 13.0% and 17.0% and 17.3% and 8.6% and 10.9%"},
      {"measurement": "Cmax, individual animal", "result": "92.4 ng/mL and 89.4 ng/mL and 76.6 ng/mL and 91.6 ng/mL and 84.5 ng/mL"},
      {"measurement": "Lambda z, individual animal", "result": "0.0027 and 0.0030 (2×) and 0.0029 and 0.0045 and 0.0037"},
      {"measurement": "t½, individual animal", "result": "233.3 h and 233.6 h and 235.6 h and 155.2 h and 185.6 h"},
      {"measurement": "AUC 0-inf, Maximum", "setting": "n=6", "result": 31726, "unit": "ng·h/mL"},
      {"measurement": "AUC 0-inf, Minimum", "setting": "n=6", "result": 23684, "unit": "ng·h/mL"},
      {"measurement": "AUC 0-t, Maximum", "setting": "n=6", "result": 26334, "unit": "ng·h/mL"},
      {"measurement": "AUC 0-t, Minimum", "setting": "n=6", "result": 21644, "unit": "ng·h/mL"},
      {"measurement": "AUC extrap, GeoMean", "setting": "n=6", "result": 13.82, "unit": "%"},
      {"measurement": "AUC extrap, Maximum", "setting": "n=6", "result": 19.5, "unit": "%"},
      {"measurement": "AUC extrap, Mean", "setting": "n=6", "result": 14.38, "unit": "%"},
      {"measurement": "AUC extrap, Median", "setting": "n=6", "result": 15.00, "unit": "%"},
      {"measurement": "AUC extrap, Minimum", "setting": "n=6", "result": 8.6, "unit": "%"},
      {"measurement": "Cmax, Maximum", "setting": "n=6", "result": 92.4, "unit": "ng/mL"},
      {"measurement": "Lambda z, GeoMean", "setting": "n=6", "result": 0.00324, "unit": "h⁻¹"},
      {"measurement": "Lambda z, Maximum", "setting": "n=6", "result": 0.0045},
      {"measurement": "Lambda z, Mean", "setting": "n=6", "result": 0.00329, "unit": "h⁻¹"},
      {"measurement": "Lambda z, Median", "setting": "n=6", "result": 0.00297, "unit": "h⁻¹"},
      {"measurement": "Lambda z, Minimum", "setting": "n=6", "result": 0.0027, "unit": "h⁻¹"},
      {"measurement": "t½, Maximum", "setting": "n=6", "result": 261.4, "unit": "h"},
      {"measurement": "t½, Minimum", "setting": "n=6", "result": 155.2, "unit": "h"}
    ]}
  ]
}
